Experimental data published in ChEMBL document CHEMBL1150601, “Lyngbouilloside, a novel glycosidic macrolide from the marine cyanobacterium Lyngbya bouillonii” (J Nat Prod, 2002).

Test: Cytotoxicity against mouse Neuro2a cells
Assay type: functional, cell-based
Conditions: N2a

## CC/C=C/C=C/CC[C@]1(C)C[C@H](O)[C@H](C)CC[C@H]2C[C@@H](O[C@@H]3O[C@@H](C)[C@H](OC)[C@@H](O)[C@H]3OC)C[C@@](O)(CC(=O)O1)O2 [LYNGBOUILLOSIDE]
  IC50: 17 µM
